Experimental data as given in ChEMBL document CHEMBL5257089, “Gamabufotalin Induces Apoptosis and Cytoprotective Autophagy through the mTOR Signaling Pathway in Hepatocellular Carcinoma” (J Nat Prod, 2023).
Residues, ends and D or L forms follow the SMILES beside them. *: point of attachment. Cbz = O=C(OCc1ccccc1)*; CH2F = FC*

Assays:
Assay type in all cases: functional
[1] = test system: Huh-7; assay: Induction of apoptosis in human Huh-7 cells assessed as viable cells at 10 nM measured after 48 hrs by annexin V-FITC/Propidium iodide staining based flow cytometric analysis (reference value: 91.7%); conditions: read-out: Activity
[2] = test system: Hep 3B2; assay: Induction of apoptosis in human Hep3B cells assessed as viable cells at 10 nM measured after 48 hrs in presence of gamabufotalin by annexin V-FITC/Propidium iodide staining based flow cytometric analysis (reference value: 95.6%); conditions: read-out: Activity
[3] = test system: Huh-7; assay: Induction of apoptosis in human Huh-7 cells assessed as necrotic cells at 10 nM measured after 48 hrs by annexin V-FITC/Propidium iodide staining based flow cytometric analysis (reference value: 0.0%)
[4] = test system: Hep 3B2; assay: Induction of apoptosis in human Hep3B cells assessed as viable cells at 10 nM measured after 48 hrs by annexin V-FITC/Propidium iodide staining based flow cytometric analysis (reference value: 95.6%); conditions: read-out: Activity
[5] = test system: Hep 3B2; assay: Induction of apoptosis in human Hep3B cells assessed as necrotic cells at 10 nM measured after 48 hrs by annexin V-FITC/Propidium iodide staining based flow cytometric analysis (reference value: 0.3%)
[6] = test system: Hep 3B2; assay: Induction of apoptosis in human Hep3B cells assessed as late apoptotic cells at 10 nM measured after 48 hrs in presence of gamabufotalin by annexin V-FITC/Propidium iodide staining based flow cytometric analysis (reference value: 2.4%)
[7] = test system: Huh-7; assay: Induction of apoptosis in human Huh-7 cells assessed as late apoptotic cells at 10 nM measured after 48 hrs by annexin V-FITC/Propidium iodide staining based flow cytometric analysis (reference value: 6.1%)
[8] = test system: Huh-7; assay: Induction of apoptosis in human Huh-7 cells assessed as viable cells at 10 nM measured after 48 hrs in presence of gamabufotalin by annexin V-FITC/Propidium iodide staining based flow cytometric analysis (reference value: 91.7%); conditions: read-out: Activity
[9] = test system: Huh-7; assay: Induction of apoptosis in human Huh-7 cells assessed as early apoptotic cells at 10 nM measured after 48 hrs in presence of gamabufotalin by annexin V-FITC/Propidium iodide staining based flow cytometric analysis (Rvb =2.2%)
[10] = test system: Huh-7; assay: Induction of apoptosis in human Huh-7 cells assessed as early apoptotic cells at 10 nM measured after 48 hrs by annexin V-FITC/Propidium iodide staining based flow cytometric analysis (reference value: 2.2%)
[11] = test system: Huh-7; assay: Induction of apoptosis in human Huh-7 cells assessed as late apoptotic cells at 10 nM measured after 48 hrs in presence of gamabufotalin by annexin V-FITC/Propidium iodide staining based flow cytometric analysis (reference value: 6.1%)
[12] = test system: Hep 3B2; assay: Induction of apoptosis in human Hep3B cells assessed as early apoptotic cells at 10 nM measured after 48 hrs in presence of gamabufotalin by annexin V-FITC/Propidium iodide staining based flow cytometric analysis (reference value: 1.6%)
[13] = test system: Hep 3B2; assay: Induction of apoptosis in human Hep3B cells assessed as early apoptotic cells at 10 nM measured after 48 hrs by annexin V-FITC/Propidium iodide staining based flow cytometric analysis (reference value: 1.6%)
[14] = test system: Huh-7; assay: Induction of apoptosis in human Huh-7 cells assessed as necrotic cells at 10 nM measured after 48 hrs in presence of gamabufotalin by annexin V-FITC/Propidium iodide staining based flow cytometric analysis (reference value: 0.0%)
[15] = test system: Hep 3B2; assay: Induction of apoptosis in human Hep3B cells assessed as late apoptotic cells at 10 nM measured after 48 hrs by annexin V-FITC/Propidium iodide staining based flow cytometric analysis (reference value: 2.4%)
[16] = test system: Hep 3B2; assay: Induction of apoptosis in human Hep3B cells assessed as necrotic cells at 10 nM measured after 48 hrs in presence of gamabufotalin by annexin V-FITC/Propidium iodide staining based flow cytometric analysis (reference value: 0.3%)

`CC(C)[C@H](NC(=O)OCc1ccccc1)C(=O)N[C@@H](C)C(=O)N[C@@H](CC(=O)O)C(=O)CF` (Cbz-Val-Ala-Asp-CH2F) was tested, and the viability at 0.01 µM [1] was 90.3%, the viability at 0.01 µM [2] was 91.9% and the Activity [3] was 0.1%. For the same molecule, the viability at 0.01 µM [4] was 93.5%, the Activity [5] was 0.3% and the Activity [6] was 3.5%. For the same molecule, the Activity [7] was 6.9%, the viability at 0.01 µM [8] was 89% and the Activity [9] was 3.3%. For the same molecule, the Activity [10] was 2.7%, the Activity [11] was 7.4% and the Activity [12] was 4.4%. The Activity [13] was 2.6%, the Activity [14] was 0.3% and the Activity [15] was 3.6%. It also gave an Activity [16] of 0.3%.
